# Experimental data as given in patent US20060252807A1, “Novel ortho-terphenyl inhibitors of p38 kinase and methods of treating inflammatory disorders” (Kalypsys, Inc., priority 2005, published 2006).
# Molecular target: T1, active p38 alpha enzyme (Upstate Biotechnology) (Homo sapiens, UniProt Q16539)
# T1 construct: purchased Upstate Biotechnology
# Assay: p38α biochemical assay (ATP turnover, luminescent detection, Cambrex PKlight)
# Details: p38α biochemical assay, Table 1 Biological Activity
# Summary of the method: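 Active human p38α was incubated with full-length MapkapK2 protein as substrate and 1.4 uM ATP (final) for 2 hours at 30C. Buffer: 200 mM Tris, 100 mM MgCl2, 1.5 mM EGTA, 4 mM CaCl2, 20 mM MOPS, 1 mM EDTA, 1% glycerol, 0.1% β-mercaptoethanol, 1 mg/ml BSA. Total ATP turnover read by luminescence.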
# T1 sequence (Q16539 whole entry): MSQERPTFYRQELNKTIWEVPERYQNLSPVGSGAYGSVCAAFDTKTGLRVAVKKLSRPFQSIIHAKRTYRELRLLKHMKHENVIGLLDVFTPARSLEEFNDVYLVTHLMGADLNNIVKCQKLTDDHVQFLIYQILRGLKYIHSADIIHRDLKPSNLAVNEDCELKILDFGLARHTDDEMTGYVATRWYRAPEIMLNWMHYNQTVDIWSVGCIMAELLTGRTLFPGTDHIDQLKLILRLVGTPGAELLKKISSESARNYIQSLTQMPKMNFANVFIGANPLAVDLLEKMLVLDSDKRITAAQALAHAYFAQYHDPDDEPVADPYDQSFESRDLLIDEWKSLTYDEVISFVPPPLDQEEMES
row,SMILES,IC50 [nM]
1,Cc1c(C(=O)NCc2nc(-c3ccc(F)cc3)c(-c3nc(C(=O)NC(C)C)cs3)o2)cccc1[N+](=O)[O-] [Example 223],> 1000
2,CC(C)NC(=O)c1csc(-c2c(-c3ccc(F)cc3)noc2CNC(=O)c2c(Cl)cc(Cl)cc2Cl)n1 [Example 781],> 1000
3,CC(C)NC(=O)c1csc(-c2c(-c3ccc(F)cc3)noc2CNC(=O)c2ccc3cccc(O)c3n2)n1 [Example 721],> 1000
4,CC(C)NC(=O)c1csc(-c2c(-c3ccc(F)cc3)noc2CNC(=O)c2ccc(F)c([N+](=O)[O-])c2)n1 [Example 712],> 1000
5,CC(C)NC(=O)c1csc(-c2oc(CN3CCN(C(=O)c4cnc(O)c(Cl)c4)CC3)nc2-c2ccc(F)cc2)n1 [Example 435],≤ 1000
6,CC(C)NC(=O)c1csc(-c2oc(CNC(=O)c3ccccc3C(=O)c3ccc(O)cc3)nc2-c2ccc(F)cc2)n1 [Example 322],≤ 1000
7,CC(C)NC(=O)c1csc(-c2c(-c3ccc(F)cc3)noc2CNC(=O)c2ccc(Oc3ccccc3)cc2)n1 [Example 765],> 1000
8,CC(C)NC(=O)c1csc(-c2oc(CNC(=O)c3c(F)cccc3Cl)nc2-c2ccc(F)cc2)n1 [Example 200],≤ 1000
9,CC(C)NC(=O)c1csc(-c2c(-c3ccc(F)cc3)noc2CNC(=O)c2ccccc2C=O)n1 [Example 607],> 1000
10,CC(C)NC(=O)c1csc(-c2c(-c3ccc(F)cc3)noc2CNC(=O)c2cc(O)ccc2O)n1 [Example 621],> 1000
11,CC(C)NC(=O)c1csc(-c2c(-c3ccc(F)cc3)noc2CNC(=O)c2ccc(OCc3ccccc3)cc2)n1 [Example 783],> 1000
12,CC(C)NC(=O)c1csc(-c2oc(CN3CCN(C(=O)c4cc(F)c(Cl)cc4F)CC3)nc2-c2ccc(F)cc2)n1 [Example 496],> 1000
13,CC(C)NC(=O)c1csc(-c2c(-c3ccc(F)cc3)noc2CNC(=O)c2cccc3ccccc23)n1 [Example 669],≤ 1000
14,"CC(C)NC(=O)c1csc(-c2c(-c3ccc(F)cc3)noc2CNCCO)n1 [Example 32, 2-{3-(4-Fluoro-phenyl)-5-|(2-hydroxy-ethylamino)-methyl|-isoxazol-4-yl}-thiazole-4-carboxylic acid isopropylamide]",> 1000
15,Cc1ccccc1OCC(=O)NCc1onc(-c2ccc(F)cc2)c1-c1nc(C(=O)NC(C)C)cs1 [Example 655],> 1000
16,CC(=O)Oc1cccc(C(=O)N2CCN(Cc3nc(-c4ccc(F)cc4)c(-c4nc(C(=O)NC(C)C)cs4)o3)CC2)c1 [Example 452],≤ 1000
17,CC(C)NC(=O)c1csc(-c2c(-c3ccc(F)cc3)noc2CNC(=O)/C=C/c2ccccc2C(F)(F)F)n1 [Example 771],> 1000
18,Cc1cc(C(=O)NCc2nc(-c3ccc(F)cc3)c(-c3nc(C(=O)NC(C)C)cs3)o2)cc(Cl)n1 [Example 192],> 1000
19,"Cc1nc(-c2ccc(F)cc2)c(-c2nc(C(=O)NCCCN3CCOCC3)cs2)s1 [Example 58, 4′-(4-Fluoro-phenyl)-2′-methyl-|2,5′|bithiazolyl-4-carboxylic acid (3-morpholin-4-yl-propyl)-amide]",> 1000
20,"Cc1nc(-c2ccc(F)cc2)c(-c2nc(C(=O)NCc3cccnc3)cs2)s1 [Example 55, 4′-(4-Fluoro-phenyl)-2′-methyl-|2,5′|bithiazolyl-4-carboxylic acid (pyridin-3-ylmethyl)-amide]",≤ 1000
21,CC(C)NC(=O)c1csc(-c2oc(CN3CCN(C(=O)c4ccccc4O)CC3)nc2-c2ccc(F)cc2)n1 [Example 362],≤ 1000
22,CC(C)NC(=O)c1csc(-c2oc(CN3CCN(C(=O)c4ccc(F)c([N+](=O)[O-])c4)CC3)nc2-c2ccc(F)cc2)n1 [Example 474],> 1000
23,CC(C)NC(=O)c1csc(-c2oc(CNC(=O)c3cc4cc(Cl)ccc4o3)nc2-c2ccc(F)cc2)n1 [Example 264],≤ 1000
24,CC(C)NC(=O)c1csc(-c2oc(CNC(=O)c3ccc(Cl)c([N+](=O)[O-])c3)nc2-c2ccc(F)cc2)n1 [Example 274],> 1000
25,CC(C)NC(=O)c1csc(-c2c(-c3ccc(F)cc3)noc2CNC(=O)c2cc3cc(Cl)ccc3o2)n1 [Example 739],> 1000
26,CC(C)NC(=O)c1csc(-c2oc(CNC(=O)C(C)c3cccc(C(=O)c4ccccc4)c3)nc2-c2ccc(F)cc2)n1 (centres unmarked) [Example 330],> 1000
27,CC(C)NC(=O)c1csc(-c2oc(CN3CCN(C(=O)c4ccnc(Cl)c4)CC3)nc2-c2ccc(F)cc2)n1 [Example 391],> 1000
28,CC(C)NC(=O)c1csc(-c2c(-c3ccc(F)cc3)noc2CNC(=O)c2ccc(F)cc2Cl)n1 [Example 674],> 1000
29,CC(C)NC(=O)c1csc(-c2c(-c3ccc(F)cc3)noc2CNC(=O)c2ccc(Cl)cc2[N+](=O)[O-])n1 [Example 748],> 1000
30,Cc1cc(C)c(C(=O)NCc2nc(-c3ccc(F)cc3)c(-c3nc(C(=O)NC(C)C)cs3)o2)c(C)c1 [Example 175],> 1000

# Same assay, conditions: p38α kinase; Table 1 Biological Activity
row,SMILES,IC50 [nM]
1,Cc1ccc(NCc2onc(-c3ccc(F)cc3)c2-c2nc(C(=O)NC(C)C)cs2)cc1Cl [Example 1668],> 1000
2,COc1cccc(OC)c1C(=O)N1CCC(c2[nH]nc(-c3ccc(F)cc3)c2-c2nc(C(=O)NC(C)C)cs2)CC1 [Example 940],> 1000
3,CC(C)NC(=O)c1csc(-c2c(-c3ccc(F)cc3)n[nH]c2C2CCN(C(=O)c3cccc(O)c3O)CC2)n1 [Example 861],> 1000
4,CC(C)NC(=O)c1csc(-c2c(-c3ccc(F)cc3)noc2CNCc2ccc(F)c(F)c2)n1 [Example 1466],> 1000
5,CCC(CO)NCc1nc(-c2ccc(F)cc2)c(-c2nc(C(=O)NC(C)C)cs2)o1 (centres unmarked) [Example 1073],> 1000
6,"CC(=O)NCC(=O)N1CCC(c2[nH]nc(-c3ccc(F)cc3)c2-c2nc(C(=O)NC(C)C)cs2)CC1 [Example 2177, 2-|5-|1-(2-Acetylamino-acetyl)-piperidin-4-yl|-3-(4-fluoro-phenyl)-1H-pyrazol-4-yl|-thiazole-4-carboxylic acid isopropylamide]",≤ 1000
7,CC(C)NC(=O)c1csc(-c2c(-c3ccc(F)cc3)noc2CN2CCC(N(C)C(=O)OC(C)(C)C)C2)n1 (centres unmarked) [Example 1605],> 1000
8,CC(C)NC(=O)c1csc(-c2oc(CNC3CCCCCC3)nc2-c2ccc(F)cc2)n1 [Example 1091],> 1000
9,CC(C)NC(=O)c1csc(-c2oc(CNCc3ccc(Cl)cc3)nc2-c2ccc(F)cc2)n1 [Example 1132],> 1000
10,CC(C)NC(=O)c1csc(-c2c(-c3ccc(F)cc3)noc2CNc2cc(C(F)(F)F)cc(C(F)(F)F)c2)n1 [Example 1698],> 1000
11,CC(C)NC(=O)c1csc(-c2oc(CNCCc3cccc(F)c3)nc2-c2ccc(F)cc2)n1 [Example 1129],> 1000
12,Cc1ccc(CNCc2onc(-c3ccc(F)cc3)c2-c2nc(C(=O)NC(C)C)cs2)cc1C [Example 1451],> 1000
13,COc1ccc(Cl)cc1C(=O)N1CCC(c2[nH]nc(-c3ccc(F)cc3)c2-c2nc(C(=O)NC(C)C)cs2)CC1 [Example 952],> 1000
14,CC(C)NC(=O)c1csc(-c2c(-c3ccc(F)cc3)n[nH]c2C2CCN(C(=O)C3CCCN3C(=O)OC(C)(C)C)CC2)n1 (centres unmarked) [Example 1009],> 1000
15,CC(C)NC(=O)c1csc(-c2oc(CBr)nc2-c2ccc(F)cc2)n1 [Example 1181],> 1000
16,CCC(CO)NC(=O)c1csc(-c2c(-c3ccc(F)cc3)n[nH]c2C2CCNCC2)n1 (centres unmarked) [Example 2052],> 1000
17,CC(C)NC(=O)c1csc(-c2c(-c3ccc(F)cc3)noc2CNCc2cccc(Cl)c2)n1 [Example 1461],> 1000
18,CC(C)NC(=O)c1csc(-c2oc(CN3CCN(c4ccccc4C#N)CC3)nc2-c2ccc(F)cc2)n1 [Example 1260],> 1000

row,SMILES,IC50 [nM]
1,CC(C)NC(=O)c1csc(-c2c(-c3ccc(F)cc3)n[nH]c2C2CCN(C(=O)c3cc(Cl)c(O)c(Cl)c3)CC2)n1 [Example 995],> 1000
2,CC(C)NC(=O)c1csc(-c2oc(CN3CCCC4CCCCC43)nc2-c2ccc(F)cc2)n1 (centres unmarked) [Example 1230],> 1000
3,CC(CCc1ccccc1)NC(=O)c1csc(-c2c(-c3ccc(F)cc3)n[nH]c2C2CCNCC2)n1 (centres unmarked) [Example 2117],> 1000
4,CC(C)NC(=O)c1csc(-c2c(-c3ccc(F)cc3)noc2CN(CCO)[C@H](C)c2ccccc2)n1 [Example 1570],> 1000
5,CCOc1cccc(NCc2nc(-c3ccc(F)cc3)c(-c3nc(C(=O)NC(C)C)cs3)o2)c1 [Example 1341],> 1000
6,O=C(NC1CCCc2ccccc21)c1csc(-c2c(-c3ccc(F)cc3)n[nH]c2C2CCNCC2)n1 (centres unmarked) [Example 2116],> 1000
7,CCN(CCCCO)Cc1onc(-c2ccc(F)cc2)c1-c1nc(C(=O)NC(C)C)cs1 [Example 1540],> 1000
8,CC1CCCCC1NC(=O)c1csc(-c2c(-c3ccc(F)cc3)n[nH]c2C2CCNCC2)n1 (centres unmarked) [Example 2069],> 1000
9,CCOc1cccc(NCc2onc(-c3ccc(F)cc3)c2-c2nc(C(=O)NC(C)C)cs2)c1 [Example 1664],> 1000
10,CC(C)NC(=O)c1csc(-c2oc(CN(C)CCC#N)nc2-c2ccc(F)cc2)n1 [Example 1191],> 1000
11,CCOC(=O)N1CCC(NCc2onc(-c3ccc(F)cc3)c2-c2nc(C(=O)NC(C)C)cs2)CC1 [Example 1376],> 1000
12,CC(C)NC(=O)c1csc(-c2c(-c3ccc(F)cc3)noc2CN2CCC[C@@H]2CO)n1 [Example 1526],> 1000
13,CC(C)NC(=O)c1csc(-c2oc(CNCc3cccc(Cl)c3)nc2-c2ccc(F)cc2)n1 [Example 1130],> 1000
14,CC(C)NC(=O)c1csc(-c2c(-c3ccc(F)cc3)noc2CN2CCN(c3ccccc3F)CC2)n1 [Example 1579],> 1000
15,COc1cccc(CNC(=O)c2csc(-c3sc(C)nc3-c3ccc(F)cc3)n2)c1 [Example 1781],≤ 1000
16,CC(=O)c1ccc(NCc2nc(-c3ccc(F)cc3)c(-c3nc(C(=O)NC(C)C)cs3)o2)cc1 [Example 1336],> 1000
17,COCC(C)NCc1onc(-c2ccc(F)cc2)c1-c1nc(C(=O)NC(C)C)cs1 (centres unmarked) [Example 1403],> 1000
